Data taken from US5952366A, “Alkyl ether analogs of chlorins having an N-substituted imide ring” (Health Research, Inc., priority 1998, dated 1999).

Legend:
[1] = test system: Radiation induced fibrosarcoma (RIF) tumors; experiment: In vivo tumor response (photodynamic therapy, RIF tumors in C3H mice); details: for Tumor Response (%): 705 nm, 135 J/cm^2, 24 h post injection
Procedure: Radiation induced fibrosarcoma (RIF) tumors, were implanted subcutanaceously into the axilla of 5-7 week old female C3H mice. When tumors grew to about 5 mm in diameter, the mice were injected with various doses of the photosensitizers. The mice (6 mice per group) were restrained in aluminum holders and each tumor illuminated with 135 J/cm^2 of light from a laser tuned at the longest wavelength absorption maximum of the photosensitizers at 705 nm. The percentage of short term control was recorded daily.
*Six mice/group (RIF tumor). 1.0 μmol/kg. 705 nm, 135J/cm^2 (24 h

[2] = human, in vivo; cited from earlier work
[3] = 1.0 μmol/kg, days 1-2, six mice/group

Row | Molecule | Tumor Response (%) ([1]; 1.0 μmol/kg, day 7) | Tumor Response (%) ([1]; 1.0 μmol/kg, day 14) | Tumor Response (%) ([1]; 1.0 μmol/kg, day 21) | Tumor Response (%) ([1]; 1.0 μmol/kg, day 30) | Tumor Response (%) ([1]; 1.0 μmol/kg, day 90) | Tumor Response (%) [1, 3] [%] | other results
1 | CCCCCCCOC(C)c1c(C)c2cc3nc(c4c5[nH]c(cc6nc(cc1[nH]2)C(C)=C6CC)c(C)c5C(=O)N(CCCCCC)C4=O)[C@@H](CCC(=O)OC)[C@@H]3C (stereo partly drawn) [R^1 = heptyl, R^2 = hexyl, heptyl ether analog of N-hexyl purpurin imide] | 100 | 100 | 100 | 100 | 83 | 100 | Tumor Response (%) ([1]; 0.25 μmol, day 7): 60%; Tumor Response (%) ([1]; 0.25 μmol, day 14): 20%; Tumor Response (%) ([1]; 0.25 μmol, day 21): 20%; Tumor Response (%) ([1]; 0.25 μmol, day 30): 20%; Tumor Response (%) ([1]; 0.25 μmol, day 90): 20%; Tumor Response (%) ([1]; 0.25 μmol, days 1-2): 100%; effectiveness in this series ([1]; dose of 1.0 μmol/kg): most effective
2 | CCCCCCOC(C)c1c(C)c2cc3nc(c4c5[nH]c(cc6nc(cc1[nH]2)C(C)=C6CC)c(C)c5C(=O)N(CCC)C4=O)[C@@H](CCC(=O)OC)[C@@H]3C (stereo partly drawn) [R^1 = hexyl, R^2 = propyl] | 83 | 83 | 50 | 33 | 33 | 100 | Tumor Response (%) ([1]; 0.5 μmol, day 7): 66%; Tumor Response (%) ([1]; 0.5 μmol, day 14): 33%; Tumor Response (%) ([1]; 0.5 μmol, day 21): 17%; Tumor Response (%) ([1]; 0.5 μmol, day 30): 17%; Tumor Response (%) ([1]; 0.5 μmol, day 90): 17%; Tumor Response (%) ([1]; 0.5 μmol, days 1-2): 100%
3 | CCCOC(C)c1c(C)c2cc3nc(c4c5[nH]c(cc6nc(cc1[nH]2)C(C)=C6CC)c(C)c5C(=O)N(CCC)C4=O)[C@@H](CCC(=O)OC)[C@@H]3C (stereo partly drawn) [R^1 = propyl, R^2 = propyl] | 33 | 17 |  |  |  | 100 | 
4 | Photofrin |  |  |  |  |  |  | normal tissue clearance [2]: lacks rapid normal tissue clearance; skin photosensitization [2]: photosensitizes the skin
